According to ChEMBL document CHEMBL6177982, “Structural Optimization of Pyrazole Compounds as Hsp90 Regulators with Enhanced Antitumor Activity” (J Med Chem, 2025):
pIC50, pKd: −log10 of the molar value. Activity calls are given as the source filed them. No cut-off for these calls is given here.

What was measured:
[1] = molecular target: Heat shock protein HSP 90-beta/Hsp90 co-chaperone Cdc37 (Homo sapiens) (UniProt P08238+Q16543); test: Inhibition of His-tagged HSP90(unknown origin)/GST-tagged CDC37 (unknown origin) protein-protein interaction at 100 uM preincubated with HSP90 for 1 hrs followed by CDC37 addition and measured after 1 hrs by HTRF assay relative to control; type: protein-complex assay
[2] = Stability of compound in simulated gastric fluid at 100 uM incubated for 12 hrs; type: physicochemical; details: simulated gi fluid
[3] = Metabolic stability in rat liver microsomes assessed as clearance at 1 uM preincubated for 5 mins followed by NADPH addition and measured up to 120 mins by LC-MS/MS analysis; type: ADME, Microsome; details: time < 125 min, read-out: CLH
[4] = Metabolic stability in rat liver microsomes assessed as parent compound remaining at 1 uM preincubated for 5 mins followed by NADPH addition and measured after 30 mins by LC-MS/MS analysis; type: ADME, Microsome; details: time 35 min, read-out: Stability
[5] = Metabolic stability in human liver microsomes assessed as parent compound remaining at 1 uM preincubated for 5 mins followed by NADPH addition and measured after 30 mins by LC-MS/MS analysis; type: ADME, Microsome; details: time 35 min, read-out: Stability
[6] = Tmax in male Sprague-Dawley rat at 1 mg/kg, iv by LC-MS/MS analysis; type: ADME, organism-based; details: in vivo
[7] = Half-life in male Sprague-Dawley rat at 1 mg/kg, iv by LC-MS/MS analysis; type: ADME, organism-based; details: in vivo
[8] = Apparent volume of distribution in male Sprague-Dawley rat at 1 mg/kg, iv by LC-MS/MS analysis; type: ADME, organism-based; details: in vivo, read-out: Vz
[9] = Clearance in male Sprague-Dawley rat at 1 mg/kg, iv by LC-MS/MS analysis; type: ADME, organism-based; details: in vivo
[10] = Apparent volume of distribution in male Sprague-Dawley rat at 5 mg/kg, ip by LC-MS/MS analysis; type: ADME, organism-based; details: in vivo
[11] = Bioavailability in male Sprague-Dawley rat at 5 mg/kg, ip by LC-MS/MS analysis; type: ADME, organism-based; details: in vivo
[12] = Tmax in male Sprague-Dawley rat at 10 mg/kg, IG by LC-MS/MS analysis; type: ADME, organism-based; details: in vivo, po
[13] = Half-life in male Sprague-Dawley rat at 10 mg/kg, IG by LC-MS/MS analysis; type: ADME, organism-based; details: in vivo, po
[14] = Apparent volume of distribution in male Sprague-Dawley rat at 10 mg/kg, IG by LC-MS/MS analysis; type: ADME, organism-based; details: in vivo, po
[15] = Clearance in male Sprague-Dawley rat at 10 mg/kg, IG by LC-MS/MS analysis; type: ADME, organism-based; details: in vivo, po
[16] = Bioavailability in male Sprague-Dawley rat at 10 mg/kg, IG by LC-MS/MS analysis; type: ADME, organism-based; details: in vivo, po
[17] = molecular target: T1, Heat shock protein HSP90 (Homo sapiens) (UniProt P07900+P08238); test: Covalent binding affinity to wildtype His-tagged C-terminal HSP90 (unknown origin) assessed as two phase melting curve at 100 uM incubated for 4 hrs by SYPRO fluorescent dye based thermal shift assay; type: protein assay
Homo sapiens = species on record: Homo sapiens; test: Covalent binding affinity to His-tagged C-terminal HSP90 C598A mutant (unknown origin) assessed as two phase melting curve at 100 uM incubated for 4 hrs by SYPRO fluorescent dye based thermal shift assay
[18] = molecular target: T2, Heat shock protein HSP 90-alpha (Homo sapiens, UniProt P07900); test: Binding affinity to HSP90alpha (unknown origin) assessed as dissociation constant by ITC analysis
[19] = molecular target: T2, Heat shock protein HSP 90-alpha; test: Binding affinity to His-tagged HSP90alpha (unknown origin) assessed as dissociation constant by SPR analysis
[20] = molecular target: T1, Heat shock protein HSP90 (Homo sapiens); test: Induction of thermal stabilization of HSP90 in human HCT-116 cells at 10 uM at 53 to 55 degreeC by CETSA based Western blot analysis; type: cell-based
[21] = molecular target: T2, Heat shock protein HSP 90-alpha; test: Covalent binding affinity to recombinant full-length HSP90alpha (unknown origin) at C598 residue assessed as appearance of compound-modified peptide incubated for 12 hrs by LC-MS/MS analysis
HCT-116 [22] = test: Induction of AKT degradation in human HCT-116 cells incubated for 24 hrs by Western blot analysis; type: cell-based; details: dose 0.1-5 µM
HCT-116 [23] = test: Induction of CDK4 degradation in human HCT-116 cells incubated for 24 hrs by Western blot analysis; type: cell-based; details: dose 0.1-5 µM
HCT-116 [24] = test: Inhibition of Myc-tagged HSP90 (unknown origin)/HSF1 (unknown origin) protein-protein interaction transfected in human HCT-116 cells at 1 to 5 uM incubated for 12 hrs by co-immunoprecipitation analysis; type: cell-based; details: dose 1-5 µM
HCT-116 [25] = test: Inhibition of Myc-tagged HSP90 C598A mutant (unknown origin)/HSF1 (unknown origin) protein-protein interaction transfected in human HCT-116 cells at 1 to 5 uM incubated for 12 hrs by co-immunoprecipitation analysis; type: cell-based; details: dose 1-5 µM
SK-BR-3 = test: Antiproliferative activity against human SK-BR-3 cells assessed as inhibition of cell proliferation incubated for 72 hrs by MTT assay; type: functional, cell-based; details: SK-BR-3, 72 h
MCF7 = test: Antiproliferative activity against human MCF7 cells assessed as inhibition of cell proliferation incubated for 72 hrs by MTT assay; type: functional, cell-based; details: MCF7, 72 h
CT26 = test: Antiproliferative activity against mouse CT26 cells assessed as inhibition of cell proliferation incubated for 72 hrs by MTT assay; type: functional, cell-based; details: CT26, 72 h
HCT-116 [26] = test: Antiproliferative activity against human HCT-116 cells assessed as inhibition of cell proliferation incubated for 24 hrs by MTT assay; type: functional, cell-based; details: HCT-116, 24 h
Mus musculus [27] = test: In vivo induction of CDK4 degradation in female Balb/c nude mouse xenografted with human HCT-116 cells assessed as decrease in CDK4 protein level in tumor at 5 to 30 mg/kg, ip administered every two days for 14 days by Western blot analysis; type: functional, organism-based; details: dose 5-30 mg/kg, time 14.0 day
Mus musculus [28] = test: Upregulation of HSP70 protein level in female Balb/c mouse tumor xenografted with human HCT-116 cells at 5 to 30 mg/kg, ip administered every two days for 14 days by Western blot analysis; type: functional, organism-based; details: dose 5-30 mg/kg, time 14.0 day
[29] = Toxicity in female Balb/c nude mouse xenografted with human HCT-116 cells assessed as effect on liver weight at 5 to 30 mg/kg, ip administered every two days for 14 days; type: organism-based; details: in vivo, 336 h, dose 5-30 mg/kg, time 14 day
[30] = Toxicity in female Balb/c nude mouse xenografted with human HCT-116 cells assessed as effect on spleen weight at 5 to 30 mg/kg, ip administered every two days for 14 days; type: organism-based; details: in vivo, 336 h, dose 5-30 mg/kg, time 14 day
[31] = Toxicity in female Balb/c nude mouse xenografted with human HCT-116 cells assessed as pathological changes in liver at 5 to 30 mg/kg, ip administered every two days for 14 days by H and E staining based analysis; type: organism-based; details: in vivo, 336 h, dose 5-30 mg/kg, time 14 day
[32] = Toxicity in female Balb/c nude mouse xenografted with human HCT-116 cells assessed as pathological changes in spleen at 5 to 30 mg/kg, ip administered every two days for 14 days by H and E staining based analysis; type: organism-based; details: in vivo, 336 h, dose 5-30 mg/kg, time 14 day
[33] = Toxicity in female Balb/c nude mouse xenografted with human HCT-116 cells assessed as pathological changes in lung at 5 to 30 mg/kg, ip administered every two days for 14 days by H and E staining based analysis; type: organism-based; details: in vivo, 336 h, dose 5-30 mg/kg, time 14 day

- inhibition [1]: 92.9%
- Stability [2]: Stable
- microsomal CLint at 1 µM [3]: 55 µL/min/mg
- remaining at 0.5 h, 1 µM [4]: 58%
- remaining at 0.5 h, 1 µM [5]: 64%
- Tmax [6]: 1.02 min
- half-life [7]: 50.4 min
- Vd [8]: 0.86 L/kg
- clearance [9]: 11.8 mL/min/kg
- Vz [10]: 0.97 L/kg
- bioavailability [11]: 92.5%
- Tmax [12]: 52.8 min
- half-life [13]: 121 min
- Vz [14]: 3.18 L/kg
- CL/F [15]: 18 mL/min/kg
- bioavailability [16]: 67.2%
- Activity [17]: Active
- Activity (Homo sapiens): inactive
- pKd [18]: 5.40
- pKd [19]: 5.86
- Activity [20]: Active
- Activity [21]: Active
- pIC50 (SK-BR-3): 5.70
- pIC50 (MCF7): 5.63
- pIC50 (CT26): 5.71
- pIC50 (HCT-116 [26]): 5.20
Compound: O=S(=O)(/C=C/c1cn(-c2ccccc2)nc1-c1cccnc1)c1ccccc1
- Activity (HCT-116 [22]): Dose-dependent-effect
- Activity (HCT-116 [23]): Dose-dependent-effect
- inhibition (HCT-116 [24]): inactive
- inhibition (HCT-116 [25]): inactive
- Activity (Mus musculus [27]): Active
- Activity (Mus musculus [28]): inactive
- Activity [29]: Non-toxic
- Activity [30]: Non-toxic
- Activity [31]: Non-toxic
- Activity [32]: Non-toxic
- Activity [33]: Non-toxic
